# Source: patent US20140294967A1, “STABLE NANOCOMPOSITION COMPRISING PACLITAXEL, PROCESS FOR THE PREPARATION THEREOF, ITS USE AND PHARMACEUTICAL COMPOSITIONS CONTAINING IT” (BBS Nanotechnology Llc., priority 2013, published 2014)
# Key:
# [1] = body weight of mice during the SK-OV-3 xenograft efficacy study; format: in vivo, SCID mice; details: 5 mg/kg, six i.v. injections; 62nd day after tumor inoculation; mean ± STDEV of five mice
# Method: (§1) The table above illustrates the comparative efficacy study in SK-OV-3 s.c. xenograft SCID mouse model of ovary cancer. Tumor was induced in mice by implanting SK-OV-3 human ovary adenocarcinoma cells s.c. in upper region of back of SCID mice and allowing the tumors to develop to appreciable size over 24 days (70 mm3). The comparative efficacy study of six i.v. injection (day 24, 31, 38, 44, 51 and 58) of 5% glucose, paclitaxel (PACL) 5 mg/kg, NP-PACL 5 mg/kg and NP-PACL-OCT 1.7 mg/kg) was evaluated over 72 days. In this table there are: change in tumor volume of mice on 62nd day after tumor inoculation (data represent mean %±SEM of five mice per group), change in body weight of mice on 62nd day after tumor inoculation (Data represent mean±STDEV of five mice per group) and survival proportion at the end of the experiment.
# [2] = test system: SK-OV-3 human ovary adenocarcinoma cells; assay: comparative efficacy study in SK-OV-3 s.c. xenograft SCID mouse model of ovary cancer; format: in vivo, SCID mice; details: 5 mg/kg
# Method: as §1
compound,measurement,setting,value
"CC(=O)O[C@H]1C(=O)[C@@]2(C)[C@H]([C@H](OC(=O)c3ccccc3)[C@]3(O)C[C@H](OC(=O)[C@H](O)[C@@H](NC(=O)c4ccccc4)c4ccccc4)C(C)=C1C3(C)C)[C@]1(OC(C)=O)CO[C@@H]1C[C@@H]2O [PACL, (2α,4α,5β,7β,10β,13α)-4,10-bis(acetyloxy)-13-{[(2R,3S)-3-(benzoylamino)-2-hydroxy-3-phenylpropanoyl]oxy}-1,7-dihydroxy-9-oxo-5,20-epoxytax-11-en-2-yl benzoate]",Change in body weight during the treatment (weight at start: 100%),[1],99% ± 5%
same,Change in tumor volume (control: 100%),"[2]; six i.v. injections (day 24, 31, 38, 44, 51, 58), 62nd day after tumor inoculation, mean % ± SEM of five mice",86% ± 13%
same,Survival proportion at the end of the experiment,"[2]; six i.v. injections, evaluated over 72 days, five mice per group",60%
